{"source": "patent US9540379B2", "about": "(priority 2011, dated 2017)", "data": [{"molecular_target": "PDE10A (Homo sapiens (Human), UniProt Q9Y233)", "sequence (Q9Y233 other isoform, or with tags, fused parts or gaps)": "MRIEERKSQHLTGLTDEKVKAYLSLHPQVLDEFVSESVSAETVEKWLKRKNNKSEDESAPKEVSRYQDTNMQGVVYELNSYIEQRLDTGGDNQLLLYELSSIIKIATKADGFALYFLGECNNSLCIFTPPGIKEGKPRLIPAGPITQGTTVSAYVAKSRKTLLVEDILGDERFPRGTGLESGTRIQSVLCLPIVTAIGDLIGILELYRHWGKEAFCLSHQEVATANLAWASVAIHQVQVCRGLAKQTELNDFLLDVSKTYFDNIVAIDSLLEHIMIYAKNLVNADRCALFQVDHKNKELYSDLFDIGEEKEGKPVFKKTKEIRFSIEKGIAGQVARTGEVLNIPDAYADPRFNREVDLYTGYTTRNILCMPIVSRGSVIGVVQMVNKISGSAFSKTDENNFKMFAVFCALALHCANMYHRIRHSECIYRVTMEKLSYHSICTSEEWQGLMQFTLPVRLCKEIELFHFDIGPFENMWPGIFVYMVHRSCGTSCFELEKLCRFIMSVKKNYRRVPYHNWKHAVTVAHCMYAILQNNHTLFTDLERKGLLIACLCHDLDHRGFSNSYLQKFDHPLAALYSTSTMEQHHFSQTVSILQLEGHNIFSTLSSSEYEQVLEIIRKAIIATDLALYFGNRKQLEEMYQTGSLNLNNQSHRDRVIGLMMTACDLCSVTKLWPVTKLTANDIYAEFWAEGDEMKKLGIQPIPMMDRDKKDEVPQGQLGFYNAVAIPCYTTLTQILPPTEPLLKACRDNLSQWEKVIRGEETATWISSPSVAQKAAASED", "experiment": "biochemical", "units": {"IC50": "µM"}, "description": "Inhibition of Recombinant PDE10A (Expressed in Baculovirus/SF21 Cells)\nPDE activity was determined in a one step procedure in microtiter plates. The reaction mixture of 100 μl contained 50 mM Tris-HCl/5 mM MgCl2 buffer (pH=7.4, Sigma, Deisenhofen, Germany; Merck, Darmstadt, Germany) 0.1 μM [3H]-cAMP (PerkinElmer, Shelton, USA) and the enzyme. Non-specific enzyme activity was determined without the enzyme.\nThe reaction was initiated by addition of the substrate solution and was carried out at 37° C. for 30 minutes. Enzymatic activity then was stopped by addition of 25 μl Ysi-SPA-beads (PerkinElmer, Shelton, USA). One h later the mixture was measured in a liquid scintillation counter for microtiter plates (Microbeta Trilux). The Biomek 2000 (Beckman) was used routinely for pipetting of the incubation mixture. […] For determination of IC50 values the Hill-plot, 2-parameter-model, was used.", "values": [{"smiles": "Cc1nc2cc(Cl)ccc2n2c(-c3cc(OCCCC(F)(F)F)ccc3Cl)nnc12", "note": "[Example 27, 7-Chloro-1-[2-chloro-5-(4,4,4-trifluoro-butoxy)-phenyl]-4-methyl-[1,2,4]triazolo[4,3-a]quinoxaline]", "IC50": "> 1"}, {"smiles": "COCCOc1ccc(F)c(-c2nnc3cnc4cc(Cl)ccc4n23)c1", "note": "[Example 29, 7-Chloro-1-[2-fluoro-5-(2-methoxy-ethoxy)-phenyl]-[1,2,4]triazolo[4,3-a]quinoxaline]", "IC50": "> 1"}, {"smiles": "CSc1ncccc1-c1nnc2c(C)nc3cc(C(F)(F)F)ccc3n12", "note": "[Example 69, 4-Methyl-1-(2-methylsulfanyl-pyridin-3-yl)-7-trifluoromethyl-[1,2,4]triazolo[4,3-a]quinoxaline]", "IC50": "> 1"}, {"smiles": "Cc1nc2cc(C(F)(F)F)ccc2n2c(-c3c(F)cccc3F)nnc12", "note": "[Example 70, 1-(2,6-Difluoro-phenyl)-4-methyl-7-trifluoromethyl-[1,2,4]triazolo[4,3-a]quinoxaline]", "IC50": 0.077}, {"smiles": "COc1ccc2c(c1)nc(C)c1nnc(-c3c(F)cccc3F)n12", "note": "[Example 75, 1-(2,6-Difluoro-phenyl)-7-methoxy-4-methyl-[1,2,4]triazolo[4,3-a]quinoxaline]", "IC50": 0.334}, {"smiles": "Cc1nc2cc(OCc3ccc(F)cc3)ccc2n2c(-c3ccccc3Cl)nnc12", "note": "[Example 77, 1-(2-Chloro-phenyl)-7-(4-fluoro-benzyloxy)-4-methyl-[1,2,4]triazolo[4,3-a]quinoxaline]", "IC50": 0.118}, {"smiles": "Cc1nc2ccccc2n2c(-c3cc(OCCN4CCN(C)CC4)ccc3Cl)nnc12", "note": "[Example 94, 1-{2-Chloro-5-[2-(4-methyl-piperazin-1-yl)-ethoxy]-phenyl}-4-methyl-[1,2,4]triazolo[4,3-a]quinoxaline]", "IC50": "> 1"}, {"smiles": "Cc1nc2ccccc2n2c(-c3cc(OC[C@H](C)O)ccc3Cl)nnc12", "note": "[Example 103, (S) 1-[4-Chloro-3-(4-methyl-[1,2,4]triazolo[4,3-a]quinoxalin-1-yl)-phenoxy]-propan-2-ol]", "IC50": "> 1"}, {"smiles": "Cc1nc2ccccc2n2c(-c3cc(OC[C@@H](C)O)ccc3Cl)nnc12", "note": "[Example 104, (R) 1-[4-Chloro-3-(4-methyl-[1,2,4]triazolo[4,3-a]quinoxalin-1-yl)-phenoxy]-propan-2-ol]", "IC50": "> 1"}, {"smiles": "Cc1nc2ccccc2n2c(-c3cc(OCC(O)c4ccccn4)ccc3Cl)nnc12", "note": "(centres unmarked) [Example 105, 2-[4-Chloro-3-(4-methyl-[1,2,4]triazolo[4,3-a]quinoxalin-1-yl)-phenoxy]-1-pyridin-2-yl-ethanol]", "IC50": "> 1"}, {"smiles": "Cc1nc2ccccc2n2c(-c3cc(OCC(F)c4ccccn4)ccc3Cl)nnc12", "note": "(centres unmarked) [Example 106, 1-[2-Chloro-5-(2-fluoro-2-pyridin-2-yl-ethoxy)-phenyl]-4-methyl-[1,2,4]triazolo[4,3-a]quinoxaline]", "IC50": 0.963}]}]}
